Patent publication US20240417408A1, “SMALL MOLECULE INHIBITORS OF KRAS G12C MUTANT” (MERCK SHARP & DOHME CORP., priority 2021, published 2024)

Columns and labels:
[1] = target: T1, Recombinant KRAS G12C mutant protein (amino acids 1-169, SEQ ID NO: 1) (Homo sapiens, UniProt P01116, G12C); experiment: Test Example 1: inhibitory activity on KRAS G12C nucleotide (GDP-GTP) exchange reaction in vitro; assay type: biochemical; settings: BODIPY FL GDP-bound KRAS G12C incubated with compound at 25° C. for 1 hour, then SOS1 and GMPPNP, read-out: GNE IC50
T1 construct: His6 (N); TEV protease site (ENLYFQG; named from own knowledge) (N); made in house; host or cells: E. coli
T1 sequence (P01116 with tags, fused parts or gaps isoform P01116-2 G12C): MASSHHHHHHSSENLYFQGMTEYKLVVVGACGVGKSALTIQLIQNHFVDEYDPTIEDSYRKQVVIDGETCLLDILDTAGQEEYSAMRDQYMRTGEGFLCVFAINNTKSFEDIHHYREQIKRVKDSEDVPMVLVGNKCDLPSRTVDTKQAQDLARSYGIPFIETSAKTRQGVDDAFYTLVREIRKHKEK
Experimental: Test Example 1: Evaluation of inhibitory activity of compounds on KRAS G12C nucleotide (GDP-GTP) exchange reaction in vitro
Recombinant KRAS G12C mutant protein (amino acids 1-169, SEQ ID NO: 1) and cleaved recombinant SOS1 (amino acids 564-1049, SEQ ID NO:2) proteins were expressed in E. coli and purified by affinity chromatography.
To prepare BODIPY FL GDP-bound KRAS G12C protein, 50 μM KRAS G12C protein was incubated with 0.5 mM BODIPY FL GDP in a loading buffer (20 mM Tris-HCl (pH 7.5), 50 mM NaCl, 1 mM DTT and 2.5 mM EDTA) for 1 hour on ice. After the incubation, MgCl2 was added to a final concentration of 10 mM, followed by incubation at room temperature for 30 minutes. The mixture was allowed to pass through a NAP-5 column to remove free nucleotides and purified BODIPY FL GDP-bound KRAS G12C protein was used for compound evaluation.
For the measurement of the inhibitory activity of compounds on GDP-GTP exchange rate of recombinant KRAS G12C, BODIPY FL GDP-bound KRAS G12C protein was incubated with various concentrations of compound in a reaction buffer (20 mM Tris-HCl (pH 7.5), 100 mM NaCl, 1 mM MgCl2, 2 mM DTT, 0.1% Tween 20) at 25° C. for 1 hour. After the incubation, recombinant SOS1 and Guanosine-5′-[(β,γ)-imido]triphosphate, Tetralithium salt (GMPPNP) (Jena Bioscience GmbH) were added and incubated at room temperature for 30 minutes to proceed SOS1-dependent GDP-GTP exchange reaction on KRAS G12C. Replacement of BODIPY FL GDP by GMPPNP was measured by calculating the ratio of fluorescence intensities of BODIPY FL before and after the exchange reaction. Inhibition % was calculated by setting the fluorescence ratio from the reaction without test compound (DMSO control) and the fluorescence ratio from the reaction without SOS1 and GMPPNP as 0% and 100% inhibition, respectively. IC50 values were calculated from dose titration curve using curve fitting by XLfit software (IDBS).

MIA PaCa-2 cells = experiment: Test Example 3: growth inhibition activity on KRAS-G12C mutant cell line (MIA PaCa-2); assay type: cell-based; settings: Homo sapiens, 72 h, MIA PaCa-2, 3-day culture, CellTiter-Glo 3D, read-out: CTX MiaPaCa IC50
Experimental: Test Example 3: Assay of Growth Inhibition Activity on KRAS-G12C Mutant Cell Line (MIA PaCa-2) (In Vitro)
MIA PaCa-2 cells (provided by Sumitomo Dainippon Pharma Co., Ltd.), which are a KRAS-G12C mutant human pancreas cancer cell line, were suspended in a 10% fetal bovine serum-containing RPMI1640 medium (manufactured by Fujifilm Wako Pure Chemical Corporation.). The cell suspension was seeded into each well of a 384-well U bottom microplate and cultured in an incubator containing 5% CO2 gas at 37° C. for 1 day. The compounds obtained in the Examples section were used as test compounds and were dissolved in DMSO, respectively, and each test compound was diluted with DMSO to give a concentration 500 times the final concentration. The resultant solution of the test compound in DMSO was diluted with the medium used for suspending cells and added to each well of the cell-culture plate to give a DMSO final concentration of 0.2%, followed by culture in an incubator containing 5% CO2 gas at 37° C. for another 3 days. The cell count after 3-day culture in the presence of the test compound was measured using CellTiter-Glo 3D Reagent (manufactured by Promega Corporation). To all cells were added with CellTiter-Glo 3D Reagent and mixed for 10 minutes. 30 minutes after mixing, luminescence was measured by a plate reader. The growth inhibition rate was calculated from the following equation, and the concentration of the test compound at which 50% inhibition was achieved (IC50 (nM)) was determined.
[formula] • T: the emission intensity in a well into which a test compound was added. • C: the emission intensity in a well into which a test compound was not added.

[2] = target: T2, interaction between KRAS G12C and cRAF-RBD (Homo sapiens, UniProt P01116, G12C); experiment: Test Example 2: inhibitory activity on interaction between KRAS G12C and cRAF (Alpha technology); assay type: binding; settings: GMPPNP-bound KRAS G12C incubated with compound at 25° C. for 1 hour, then cRAF-RBD
T2 construct: TEV protease site (ENLYFQG); made in house; host or cells: E. coli
T2 sequence (P01116 with tags, fused parts or gaps isoform P01116-2 G12C): as above
Experimental: Test Example 2: Evaluation of Inhibitory Activity of Compounds on Interaction Between KRAS G12C and cRAF (In Vitro)
Interaction between recombinant KRAS G12C mutant protein (SEQ ID NO: 1) and cRAF RAS-binding domain (cRAF-RBD, amino acids 50-132, Jena Biosciences GmbH) was measured using Alpha technology (PerkinElmer Inc.).
Recombinant KRAS G12C protein with an N-terminal His-tag was expressed in E. coli and purified by affinity chromatography. To prepare GTP-bound form and GDP-bound form of KRAS G12C protein, 50 μM KRAS G12C protein was incubated with 1 mM GMPPNP (Jena Bioscience GmbH) and 1 mM GDP, respectively, in a loading buffer (20 mM Tris-HCl (pH 7.5), 50 mM NaCl, 1 mM DTT and 2.5 mM EDTA) for 1 hour on ice. After the incubation, MgCl2 was added to a final concentration of 10 mM, followed by incubation at room temperature for 30 minutes. The mixture was allowed to pass through a NAP-5 column to remove free nucleotides and purified, and the resultant nucleotide-bound KRAS G12C protein was used for compound evaluation.
For the measurement of the inhibitory activity of compounds on interaction between KRAS G12C and cRAF-RBD, GMPPNP-bound KRAS G12C protein was incubated with various concentrations of compound in a reaction buffer (20 mM Tris-HCl (pH 7.5), 100 mM NaCl, 1 mM MgCl2, 1 mM TCEP, 0.1% Tween 20) at 25° C. for 1 hour. After the incubation, recombinant cRAF-RBD and Alpha detection reagents were added and incubated at room temperature for 1.5 hours for binding. Interaction of KRAS G12C and cRAF-RBD was monitored by measuring Alpha signal. Inhibition % was calculated using the signal from the reaction without test compound (DMSO control) as 0% inhibition and the signal from the reaction using GDP-bound KRAS G12C in place of GMPPNP-bound KRAS G12C as 100% inhibition. IC50 values were calculated from dose titration curve using curve fitting by XLfit software (IDBS).

Row | SMILES | IC50 [1] | IC50 (MIA PaCa-2 cells) | IC50 [2]
1 | C#Cc1cccc2cc(O)cc([C@@H]3Cc4nc(OC[C@@H]5CCCN5C)nc(N5C[C@H](CC#N)N(C(=O)/C=C/CN6CCC(OC)CC6)C[C@@H]5C)c4CO3)c12 [Example 15, 2-((2S,5S)-4-((S)-7-(8-ethynyl-3-hydroxynaph-thalen-1-yl)-2-(((S)-1-meth-ylpyrrolidin-2-yl)methoxy)-7,8-dihydro-5H-pyrano[4,3-d]pyrimidin-4-yl)-1-((E)-4-(4-methoxypiperidin-1-yl)-but-2-enoyl)-5-methyl-piperazin-2-yl)acetonitrile] | 0.103 µM | 1.92 µM | > 6.67 µM
2 | C#Cc1cccc2cc(O)cc(C3Cc4nc(OC5CN(S(C)(=O)=O)C5)nc(N5CCN(C(=O)/C=C/CN6CCC(OC)CC6)[C@@H](CC#N)C5)c4CO3)c12 (stereo partly drawn) [Example 16, 2-((2S)-4-(7-(8-ethynyl-3-hydroxynaphthalen-1-yl)-2-((1-(methylsulfonyl)azeti-din-3-yl)oxy)-7,8-dihydro-5H-pyrano[4,3-d]pyrimidin-4-yl)-1-((E)-4-(4-methoxy-piperidin-1-yl)but-2-enoyl)-piperazin-2-yl)acetonitrile] | 0.338 µM | > 10 µM | > 6.67 µM
3 | C#Cc1cccc2cc(O)cc([C@@H]3Cc4nc(OCC5(COC)CC5)nc(N5CCN(C(=O)/C=C/CN6CCC(OC)CC6)[C@@H](CC#N)C5)c4CO3)c12 [Example 17, 2-((S)-4-((S)-7-(8-ethynyl-3-hydroxynaphthalen-1-yl)-2-((1-(methoxymethyl)-cyclopropyl)methoxy)-7,8-dihydro-5H-pyrano[4,3-d]-pyrimidin-4-yl)-1-((E)-4-(4-methoxypiperidin-1-yl)but-2-enoyl)piperazin-2-yl)-acetonitrile] | 0.255 µM | 0.543 µM | > 6.67 µM
4 | C#Cc1cccc2cc(O)cc([C@@H]3Cc4nc(OCC5(C(=O)N(C)C)CC5)nc(N5CCN(C(=O)/C=C/CN6CCC(OC)CC6)[C@@H](CC#N)C5)c4CO3)c12 [Example 18, 1-((((S)-4-((S)-3-(cyano-methyl)-4-((E)-4-(4-meth-oxypiperidin-1-yl)but-2-enoyl)piperazin-1-yl)-7-(8-ethynyl-3-hydroxynaph-thalen-1-yl)-7,8-dihydro-5H-pyrano[4,3-d]pyrimidin-2-yl)oxy)methyl)-N,N-dimethylcyclopropane-1-carboxamide] | 0.0587 µM | 4.46 µM | > 6.67 µM

Now those with a lower IC50 [1], led by results:

Row | IC50 [1] | IC50 (MIA PaCa-2 cells) | IC50 [2] | SMILES
5 | 0.0467 µM | 8.25 µM | 3.55 µM | C#Cc1cccc2cc(O)cc(C3Cc4nc(OC[C@@H]5CCCN5C)nc(N5CCN(C(=O)/C=C/CN6CCC(OC)CC6)[C@@H](CO)C5)c4CO3)c12 (stereo partly drawn) [Example 19, (E)-1-((2R)-4-(7-(8-ethynyl-3-hydroxynaphthalen-1-yl)-2-(((S)-1-methylpyrrolidin-2-yl)methoxy)-7,8-dihydro-5H-pyrano[4,3-d]pyrimidin-4-yl)-2-(hydroxymethyl)-piperazin-1-yl)-4-(4-meth-oxypiperidin-1-yl)but-2-en-1-one]
6 | 0.0067 µM | 0.17 µM | 0.309 µM | C#Cc1cccc2cccc([C@@H]3Cc4nc(OCC5(CN6CCOCC6)CC5)nc(N5CCN(C(=O)/C=C/CN6CCC(OC)CC6)[C@@H](CC#N)C5)c4CO3)c12 [Example 12, 2-((S)-4-((S)-7-(8-ethynyl-naphthalen-1-yl)-2-((1-(morpholinomethyl)cyclo-propyl)methoxy)-7,8-dihydro-5H-pyrano[4,3-d]pyrimidin-4-yl)-1-((E)-4-(4-methoxypiperidin-1-yl)-but-2-enoyl)piperazin-2-yl)-acetonitrile]
7 | 0.00091 µM | 0.00621 µM | 0.0513 µM | C#Cc1cccc2cc(O)cc([C@@H]3Cc4nc(OCC5(CN(C)C)CC5)nc(N5CCN(C(=O)/C=C/CN6CCC(OC)CC6)[C@@H](CC#N)C5)c4CO3)c12 [Example 13, 2-((S)-4-((S)-2-((1-((dimeth-ylamino)methyl)cycloprop-yl)methoxy)-7-(8-ethynyl-3-hydroxynaphthalen-1-yl)-7,8-dihydro-5H-pyrano[4,3-d]pyrimidin-4-yl)-1-((E)-4-(4-methoxypiperidin-1-yl)-but-2-enoyl)piperazin-2-yl)-acetonitrile]
8 | 0.00082 µM | 0.00788 µM | 0.531 µM | C#Cc1cccc2cc(O)cc([C@@H]3Cc4nc(OC[C@@H]5CCCN5C)nc(N5C[C@H](CC#N)N(C(=O)/C=C/CN6CCC(OC)CC6)C[C@H]5C)c4CO3)c12 [Example 14, 2-((2S,5R)-4-((S)-7-(8-ethynyl-3-hydroxynaph-thalen-1-yl)-2-(((S)-1-meth-ylpyrrolidin-2-yl)methoxy)-7,8-dihydro-5H-pyrano[4,3-d]pyrimidin-4-yl)-1-((E)-4-(4-methoxypiperidin-1-yl)-but-2-enoyl)-5-methylpiper-azin-2-yl)acetonitrile]
9 | 0.00081 µM | 0.0217 µM | 0.182 µM | CO[C@H]1CC[C@H](NC/C=C/C(=O)N2CCN(c3nc(OC[C@@H]4CCCN4C)nc4c3CO[C@H](c3cc(O)cc5cccc(Br)c35)C4)C[C@@H]2CC#N)CC1 [Example 11, 2-((S)-4-((S)-7-(8-bromo-3-hydroxynaphthalen-1-yl)-2-(((S)-1-methylpyrrolidin-2-yl)methoxy)-7,8-dihydro-5H-pyrano[4,3-d]pyrimidin-4-yl)-1-((E)-4-(((1r,4S)-4-methoxycyclohexyl)amino)-but-2-enoyl)piperazin-2-yl)-acetonitrile]
